{
  "source": "paper PMC10690091",
  "about": "(Cancer Research, 2023)",
  "key": {"[1]": {"test_system": "ER transcriptional activity", "test": "RNA-seq ER-regulated gene expression in MCF7 and CAMA-1 cells", "format": "cell-based, human", "settings": "100 nmol/L + 1 nmol/L estradiol, 24 hours", "experimental": "MCF7 and CAMA-1 cells were seeded into 6-well microplates in phenol red-free RPMI-1640 medium (Invitrogen) containing 2 mmol/L L-glutamine and 5% (volume/volume, v/v) charcoal-stripped FBS (Sigma). […] Samples were harvested in 1 mL of QIAzol lysis buffer and snap-frozen. Snap-frozen tissue from PDX studies was homogenized and resuspended in QIAzol lysis buffer. RNA was extracted using RNeasy 96 QIAcube HT total RNA Cell with DNAse treatment, and samples randomized over 96-well plates. RNA was quantified using the Qubit RNA BR kit (Q10213 Invitrogen), per the manufacturer's instructions.\n[…], RNA integrity was analyzed on a TapeStation 4200 using the RNA 6000 Nano Kit (5067 1511, Agilent), according to the manufacturers’ instructions. The Illumina Truseq stranded mRNA library was generated by the Cancer Research UK Cambridge Institute Genomic core facility, and sequencing of cell lines was performed on the Illumina Hiseq4000 platform, providing single-end 50 base pair reads and around 20 million reads per sample. PDX samples were sequenced using Illumina NovaSeq600, providing paired-end 100 base pair reads and around 34 million reads per sample.\nQuality control and gene expression quantification of RNA sequencing (RNA-seq) were performed using the RNA-seq pipeline implemented in bcbio-nextgen (https://bcbio-nextgen.readthedocs.org/en/latest/). Reads were aligned to the University of California (Santa Cruz, CA) Homo sapiens GRCh38 genome build, augmented with transcript information from Ensembl release 86 using HiSat2 ([31]). Alignments were evaluated for evenness of coverage, ribosomal RNA content, genomic context of alignments, and complexity, using a combination of FastQC, Qualimap, and custom computational tools ([32]). Transcripts per million measurements per isoform were generated by quasi-alignment using Salmon and were used to estimate the abundance of genes ([33]). The aggregated gene counts were used for differential gene expression analyses using DESeq2 ([34])."}, "CAMA-1 cells": {"test_system": "CAMA-1 cells", "test": "Sytox Green proliferation assay, CAMA-1", "format": "cell-based, human", "settings": "7-day proliferation", "experimental": "MCF7 and CAMA-1 cells were seeded into 96-well microplates in phenol red-free RPMI-1640 medium containing 2 mmol/L L-glutamine and 5% (v/v) charcoal-stripped FBS at 4×10^3 and 8×10^3 cells/well, based on the doubling time of each cell line. Plates were incubated for 24 hours (37°C; 5% CO2) and a 10-point concentration range of selected compounds was dispensed onto the cells. Dimethyl sulfoxide (DMSO) was dispensed into control wells to give a 0.1% final concentration. One plate was untreated, as a day 0 control. […] were counted at days 0 and 7 (or day 6 for Y537S ESR1m MCF7 cells) using Sytox Green nucleic assay stain (180 nmol/L per well). Green (dead) cells were counted at days 0 and 7 using an Acumen Explorer (TTP Labtech) or Cellinsight imager (Thermo Fisher Scientific). Saponin 0.045% (weight/volume) was added to permeabilize the cells overnight, permitting total cell count. The number of live cells was calculated by subtracting dead cells from the total cell count, and curve-fitted using GraphPad Prism. Average cell counts from the day 0 plate were used to determine 0% cell growth. A dose–response curve was plotted using non-linear regression to determine the IC50 and bottom-of-curve values. Viability assay methods are described in Supplementary Methods."}, "[2]": {"target": "T1, ER in Ishikawa endometrial cancer cell line (Homo sapiens, UniProt P03372)", "T1 sequence (P03372 1-595)": "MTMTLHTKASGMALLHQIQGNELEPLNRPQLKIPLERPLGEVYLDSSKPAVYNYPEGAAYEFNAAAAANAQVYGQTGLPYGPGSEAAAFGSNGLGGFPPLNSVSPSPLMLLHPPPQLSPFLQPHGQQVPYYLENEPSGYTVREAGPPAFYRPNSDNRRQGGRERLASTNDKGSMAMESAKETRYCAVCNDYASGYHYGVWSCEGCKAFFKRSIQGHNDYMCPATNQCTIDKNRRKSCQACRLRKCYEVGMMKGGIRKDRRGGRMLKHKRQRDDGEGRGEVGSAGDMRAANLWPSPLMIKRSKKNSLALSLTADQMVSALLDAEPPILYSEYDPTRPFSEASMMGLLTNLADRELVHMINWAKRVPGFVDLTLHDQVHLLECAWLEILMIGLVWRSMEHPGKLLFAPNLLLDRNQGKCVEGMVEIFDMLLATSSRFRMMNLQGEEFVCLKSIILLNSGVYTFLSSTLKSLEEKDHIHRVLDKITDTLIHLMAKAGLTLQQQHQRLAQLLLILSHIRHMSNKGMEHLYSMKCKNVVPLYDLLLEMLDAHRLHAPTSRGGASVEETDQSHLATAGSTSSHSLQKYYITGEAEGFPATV", "test": "ER degradation and agonism (PgR expression) in Ishikawa cells", "format": "cell-based", "experimental": "Cells were seeded into 12-well tissue culture-treated plates (0.5×10^6 cells/well) in phenol red-free RPMI medium containing 5% (v/v) charcoal-stripped FBS.\nCell lysates were loaded on NuPAGE 4% to 12% Bis-Tris Midi Protein Gels, transferred to nitrocellulose membranes and immunoblotted with anti-ER antibody (clone SP1, Thermo Fisher Scientific). To detect ER agonism, Ishikawa cells were incubated in media containing 5% (v/v) double charcoal-stripped FBS, achieved by stripping FBS using activated charcoal (C9157, Sigma). Blots were probed with anti-PgR antibody (clone 636, Dako) then horseradish peroxidase secondary antibody (anti-mouse, 7076 Cell Signaling Technology or anti-rabbit, 7070 Cell Signaling Technology). Protein levels were measured on the G-box using Pierce West Dura and West Femto chemiluminescent reagents and Syngene software."}, "ST3632 ESR1wt PDX": {"test_system": "ST3632 ESR1wt PDX", "test": "Efficacy in ST3632 PDX model", "format": "in vivo, mice", "settings": "oral camizestrant 10 mg/kg daily, palbociclib 50 mg/kg daily, abemaciclib 50 mg/kg daily"}, "[3]": {"test_system": "MCF7 palbociclib-resistant cell lines (PC1, PC6, PC8)", "test": "Cell Titer Glo viability in palbociclib-resistant MCF7 lines", "format": "cell-based, human", "settings": "7 days", "experimental": "B) Viability of CTC174 PDX-derived […]\norganoids treated with the indicated drugs for 144 hours. Mean ± standard error of the mean (one experiment using six independent CTC174 organoid lines in three technical replicates). P values were calculated using two-tailed paired t tests of biological replicates. C) Immunoblots of CTC174 PDX tumors and quantification of ER, pS6, S6, or PCNA following treatment. Mean ± standard deviation (n=5). p values were calculated using ANOVA tests. D) Genetic backgrounds for cell lines with putative mechanism of resistance to palbociclib indicated for each cell line. Combination matrix plots […]\npalbociclib or abemaciclib at indicated doses for 7 days using Cell Titer Glo viability assay. Values represent measured cell viability normalized to Day 0 (treatment day) and dimethyl sulfoxide control at Day 7. […]\nprotein levels measured by western blot. […]\ndependent kinase 4/6 (inhibitor); Ctrl, control; del, deletion; ER, estrogen receptor; ESR1, estrogen receptor 1 gene; Everol, everolimus; MCL1, induced myeloid leukemia cell differentiation protein; mut, mutation; nd, not determined; Palbo, palbociclib; PCNA, proliferating cell nuclear antigen; PDX, patient-derived xenograft; PgR, progesterone receptor; PIK3CA, phosphatidylinositol 3-kinase subunit α; Rb, retinoblastoma; S6, Ribosomal protein S6; veh, vehicle; wt, wild-type […]\nAn untreated plate was read on […]"}, "ST1799/HI/PBR PDX": {"test_system": "ST1799/HI/PBR PDX", "test": "Efficacy in palbociclib-resistant ST1799/HI/PBR PDX model", "format": "in vivo, mice", "settings": "camizestrant 10 mg/kg daily, palbociclib 50 mg/kg, abemaciclib 50 mg/kg, capivasertib 130 mg/kg, 40 days", "experimental": "For all PDX models, tumors were measured twice weekly; changes in tumor volume and growth inhibition were determined by bilateral Vernier caliper measurement (length x width). Length was the longest diameter across the tumor and width the corresponding perpendicular.\nFor efficacy studies, animals were randomized into treatment groups and dosing started once tumor volume reached 150–300 mm^3. Details of efficacy studies, and group sizes and treatments are described in corresponding figure legends. PDX models in Fig. 6 and Supplementary Fig. S1 were part of the multi-arm study (with arms irrelevant to this publication) with common control monotherapy arms (e.g., the vehicle-treated group).\n(TV) was calculated using the formula: TV (mm3) = (3.142 x max (length:width) x min […]\nestablished tumors were removed from two donor mice and dissected into 3x3x3 mm pieces in RPMI 1640 media. […] TV was calculated as TV (mm3) = width2 x length x 0.52.\nFor the combination studies in the CTC174 PDX model (hormone-independent), established tumors were removed from donor mice and dissected into 3x3x3 mm pieces in RPMI 1640 media. […] TV was calculated using the formula: TV (mm3) = (3.142 x max (length:width) x min (length:width) x min (length:width))/6,000, or (mm3) = width2 x length x 0.52 for the CTC174 study. […]"}},
  "data": [
    {"compound": "C[C@@H]1Cc2c([nH]c3ccccc23)[C@@H](c2c(F)cc(/C=C/C(=O)O)cc2F)N1CC(C)(C)F", "note": "[AZD9496]", "values": [
      {"measurement": "estradiol-driven gene expression (ER transcriptional activity)", "setting": "[1]", "value": "antagonized all estradiol-driven gene expression"},
      {"measurement": "cell growth inhibition", "setting": "CAMA-1 cells", "value": "weaker antiproliferative effects"},
      {"measurement": "ER agonism (PgR expression as a marker)", "setting": "[2]", "value": "evident in endometrial in vitro and in vivo models"}
    ]},
    {"compound": "CCN1CCN(Cc2ccc(Nc3ncc(F)c(-c4cc(F)c5nc(C)n(C(C)C)c5c4)n3)nc2)CC1", "note": "[abemaciclib, reference compound]", "values": [
      {"measurement": "reduction of relative TV compared with the vehicle", "setting": "ST3632 ESR1wt PDX", "value": 46, "unit": "%"},
      {"measurement": "sensitivity of palbociclib-resistant lines", "setting": "[3]", "value": "sensitive"}
    ]},
    {"compound": "NC1(C(=O)N[C@@H](CCO)c2ccc(Cl)cc2)CCN(c2nc[nH]c3nccc2-3)CC1", "note": "[capivasertib, reference compound]", "values": [
      {"measurement": "tumor growth", "setting": "ST1799/HI/PBR PDX", "value": "could not completely arrest tumor growth"}
    ]},
    {"compound": "CC(=O)c1c(C)c2cnc(Nc3ccc(N4CCNCC4)cn3)nc2n(C2CCCC2)c1=O", "note": "[palbociclib]", "values": [
      {"measurement": "reduction of relative TV compared with the vehicle", "setting": "ST3632 ESR1wt PDX", "value": 0, "unit": "%"}
    ]}
  ]
}
